Results from ChEMBL document CHEMBL3885881, “DrugMatrix”.

Species: Rattus norvegicus
Assay: DrugMatrix - Regimen: Daily Repeat
Assay type: toxicity, organism-based, Sprague-Dawley
Parameters: regimen Daily Repeat, gender Male, age 6-8 weeks
Conditions: in vivo, po, route oral GAVAGE, vehicle .5 % CMC; for BASOPHIL / EOSINOPHIL / ERYTHROCYTE COUNT / HEMATOCRIT / HEMOGLOBIN / LEUKOCYTE COUNT / LYMPHOCYTE / MEAN CORPUSCULAR HEMOGLOBIN / MEAN CORPUSCULAR HEMOGLOBIN CONCENTRATION / MEAN CORPUSCULAR VOLUME / MONOCYTE / NEUTROPHIL / PLATELET COUNT: tissue Blood
[1] = 0 mg/kg, […], tissue Plasma, dose level Control, time 28 day
[2] = 30 mg/kg, 72 h, dose level M1, time 3 day
[3] = 30 mg/kg, 72 h, tissue Plasma, dose level M1, time 3 day
[4] = 30 mg/kg, 120 h, dose level M1, time 5 day
[5] = 30 mg/kg, 120 h, tissue Plasma, dose level M1, time 5 day
[6] = 300 mg/kg, 72 h, dose level High, time 3 day
[7] = 300 mg/kg, 72 h, tissue Plasma, dose level High, time 3 day
[8] = 300 mg/kg, 120 h, dose level High, time 5 day
[9] = 300 mg/kg, 120 h, tissue Plasma, dose level High, time 5 day

Cc1ccc2cc3c(ccc4ccccc43)c3c2c1CC3 [3-METHYLCHOLANTHRENE]
CHOLESTEROL [1]: 59.6 mg/dL
CREATINE PHOSPHOKINASE [1]: 121.8 u/L
CREATININE [1]: 0.6 mg/dL
GLUCOSE [1]: 143 mg/dL
LACTATE DEHYDROGENASE [1]: 87.8 u/L
LIPASE [1]: 17.4 u/L
PHOSPHORUS [1]: 8.68 mg/dL
POTASSIUM [1]: 6.02 MEQ/L
SODIUM [1]: 152.8 MEQ/L
TOTAL BILIRUBIN [1]: 0.26 mg/dL
TOTAL PROTEIN [1]: 6.92 G/DL
URIC ACID [1]: 0.52 mg/dL
BASOPHIL [2]: 0.4%
EOSINOPHIL [2]: 0.4%
ERYTHROCYTE COUNT [2]: 6.58 x10E6/uL
HEMATOCRIT [2]: 41.43%
HEMOGLOBIN [2]: 13.13 G/DL
LEUKOCYTE COUNT [2]: 12.08 x10E3/uL
LYMPHOCYTE [2]: 83.17%
MEAN CORPUSCULAR HEMOGLOBIN [2]: 20 pg
MEAN CORPUSCULAR HEMOGLOBIN CONCENTRATION [2]: 31.7 G/DL
MEAN CORPUSCULAR VOLUME [2]: 63.07 fL
MONOCYTE [2]: 2.4%
NEUTROPHIL [2]: 12.5%
PLATELET COUNT [2]: 1282.33 x10E3/uL
ALANINE AMINOTRANSFERASE [3]: 39.67 u/L
ALBUMIN [3]: 3.57 G/DL
ALKALINE PHOSPHATASE [3]: 304 u/L
ASPARTATE AMINOTRANSFERASE [3]: 67.67 u/L
BLOOD UREA NITROGEN [3]: 12.67 mg/dL
CHLORIDE [3]: 104 MEQ/L
CHOLESTEROL [3]: 97.67 mg/dL
CREATINE PHOSPHOKINASE [3]: 181.67 u/L
CREATININE [3]: 0.37 mg/dL
GLUCOSE [3]: 174.33 mg/dL
PHOSPHORUS [3]: 12.23 mg/dL
POTASSIUM [3]: 6.87 MEQ/L
SODIUM [3]: 147.67 MEQ/L
TOTAL BILIRUBIN [3]: 0.43 mg/dL
TOTAL PROTEIN [3]: 6.03 G/DL
BASOPHIL [4]: 0.43%
EOSINOPHIL [4]: 0.27%
ERYTHROCYTE COUNT [4]: 6.57 x10E6/uL
HEMATOCRIT [4]: 43.27%
HEMOGLOBIN [4]: 13.43 G/DL
LEUKOCYTE COUNT [4]: 10.87 x10E3/uL
LYMPHOCYTE [4]: 82.07%
MEAN CORPUSCULAR HEMOGLOBIN [4]: 20.43 pg
MEAN CORPUSCULAR HEMOGLOBIN CONCENTRATION [4]: 31.07 G/DL
MEAN CORPUSCULAR VOLUME [4]: 65.87 fL
MONOCYTE [4]: 2.43%
NEUTROPHIL [4]: 13.57%
PLATELET COUNT [4]: 1575.33 x10E3/uL
ALANINE AMINOTRANSFERASE [5]: 38.33 u/L
ALBUMIN [5]: 3.47 G/DL
ALKALINE PHOSPHATASE [5]: 335.67 u/L
ASPARTATE AMINOTRANSFERASE [5]: 70.67 u/L
BLOOD UREA NITROGEN [5]: 15 mg/dL
CHLORIDE [5]: 103.33 MEQ/L
CHOLESTEROL [5]: 82 mg/dL
CREATINE PHOSPHOKINASE [5]: 189.33 u/L
CREATININE [5]: 0.4 mg/dL
GLUCOSE [5]: 182 mg/dL
PHOSPHORUS [5]: 12.6 mg/dL
POTASSIUM [5]: 6.87 MEQ/L
SODIUM [5]: 148.33 MEQ/L
TOTAL BILIRUBIN [5]: 0.4 mg/dL
TOTAL PROTEIN [5]: 5.77 G/DL
BASOPHIL [6]: 0.4%
EOSINOPHIL [6]: 0.37%
ERYTHROCYTE COUNT [6]: 6.99 x10E6/uL
HEMATOCRIT [6]: 43.53%
HEMOGLOBIN [6]: 13.6 G/DL
LEUKOCYTE COUNT [6]: 10.06 x10E3/uL
LYMPHOCYTE [6]: 78.97%
MEAN CORPUSCULAR HEMOGLOBIN [6]: 19.47 pg
MEAN CORPUSCULAR HEMOGLOBIN CONCENTRATION [6]: 31.3 G/DL
MEAN CORPUSCULAR VOLUME [6]: 62.23 fL
MONOCYTE [6]: 2.83%
NEUTROPHIL [6]: 15.97%
PLATELET COUNT [6]: 1201 x10E3/uL
ALANINE AMINOTRANSFERASE [7]: 33.33 u/L
ALBUMIN [7]: 3.53 G/DL
ALKALINE PHOSPHATASE [7]: 316 u/L
ASPARTATE AMINOTRANSFERASE [7]: 60 u/L
BLOOD UREA NITROGEN [7]: 12.67 mg/dL
CHLORIDE [7]: 103.67 MEQ/L
CHOLESTEROL [7]: 97.67 mg/dL
CREATINE PHOSPHOKINASE [7]: 153 u/L
CREATININE [7]: 0.43 mg/dL
GLUCOSE [7]: 185.67 mg/dL
PHOSPHORUS [7]: 12.47 mg/dL
POTASSIUM [7]: 6.9 MEQ/L
SODIUM [7]: 147 MEQ/L
TOTAL BILIRUBIN [7]: 0.5 mg/dL
TOTAL PROTEIN [7]: 5.83 G/DL
BASOPHIL [8]: 0.55%
EOSINOPHIL [8]: 0.15%
ERYTHROCYTE COUNT [8]: 6.96 x10E6/uL
HEMATOCRIT [8]: 44.15%
HEMOGLOBIN [8]: 14.05 G/DL
LEUKOCYTE COUNT [8]: 9.75 x10E3/uL
LYMPHOCYTE [8]: 87.2%
MEAN CORPUSCULAR HEMOGLOBIN [8]: 20.2 pg
MEAN CORPUSCULAR HEMOGLOBIN CONCENTRATION [8]: 31.8 G/DL
MEAN CORPUSCULAR VOLUME [8]: 63.45 fL
MONOCYTE [8]: 2.05%
NEUTROPHIL [8]: 8.8%
PLATELET COUNT [8]: 1398 x10E3/uL
ALANINE AMINOTRANSFERASE [9]: 37 u/L
ALBUMIN [9]: 3.63 G/DL
ALKALINE PHOSPHATASE [9]: 280 u/L
ASPARTATE AMINOTRANSFERASE [9]: 66.33 u/L
BLOOD UREA NITROGEN [9]: 14.67 mg/dL
CHLORIDE [9]: 103 MEQ/L
CHOLESTEROL [9]: 112 mg/dL
CREATINE PHOSPHOKINASE [9]: 163.67 u/L
CREATININE [9]: 0.4 mg/dL
GLUCOSE [9]: 178.33 mg/dL
PHOSPHORUS [9]: 13.37 mg/dL
POTASSIUM [9]: 7.9 MEQ/L
SODIUM [9]: 147.33 MEQ/L
TOTAL BILIRUBIN [9]: 0.4 mg/dL
TOTAL PROTEIN [9]: 6.13 G/DL
